Measured values as given in ChEMBL document CHEMBL1137697, “In vitro and in vivo antitrypanosomatid activity of 5-nitroindazoles” (Eur J Med Chem, 2009).

Each compound was assayed on Trypanosoma cruzi (assay: Inhibition of respiration in Trypanosoma cruzi Tulahuen 2 assessed as oxygen uptake at 0.467 mM). Conditions: not given.
Type: functional
Design: scale not given: the % may be the effect or the level left

| Structure (SMILES) | Activity [%] |
| --- | --- |
| CN(C)CCCCCn1nc(OCc2ccccc2)c2cc([N+](=O)[O-])ccc21 | 11 |

These compounds were tested on Trypanosoma cruzi (assay: Inhibition of respiration in Trypanosoma cruzi Tulahuen 2 assessed as oxygen uptake at 0.325 mM). Conditions: not given.
Type: functional
Design: scale not given: the % may be the effect or the level left

| Structure (SMILES) | Activity [%] |
| --- | --- |
| CN(C)CCCCCn1nc(OCc2ccccc2)c2cc([N+](=O)[O-])ccc21 | 12 |

These compounds were tested on Trypanosoma cruzi (assay: Inhibition of respiration in Trypanosoma cruzi Tulahuen 2 assessed as oxygen uptake at 0.156 mM). Conditions: not given.
Type: functional
Design: scale not given: the % may be the effect or the level left

| Structure (SMILES) | Activity [%] |
| --- | --- |
| CN(C)CCCCCn1nc(OCc2ccccc2)c2cc([N+](=O)[O-])ccc21 | 99 |

These compounds were tested on Trypanosoma cruzi (assay: Inhibition of respiration in Trypanosoma cruzi Tulahuen 2 assessed as oxygen uptake). Conditions: not given.
Type: functional, organism-based

| Structure (SMILES) | Activity |
| --- | --- |
| CN(C)CCCCCn1nc(OCc2ccccc2)c2cc([N+](=O)[O-])ccc21 | Dose-dependent effect |

Each compound was assayed on Trypanosoma cruzi (assay: Antitrypanosomal activity against Trypanosoma cruzi bloodstream trypomastigote in mouse blood assessed as lysis of trypomastigotes at 250 ug/mL after 24 hrs relative to control). Conditions: not given.
Type: functional

| Structure (SMILES) | Activity [%] |
| --- | --- |
| CN(C)CCOCCn1nc(O)c2cc([N+](=O)[O-])ccc21 | 18 |
| O=[N+]([O-])c1ccc2c(c1)c(O)nn2CCOCCN1CCCCC1 | 53 |
| COc1nn(CCOCCN(C)C)c2ccc([N+](=O)[O-])cc12.Cl | 77 |
| CN(C)CCCCCn1nc(O)c2cc([N+](=O)[O-])ccc21 | 29 |
| CN(C)CCCCCn1nc(OCc2ccccc2)c2cc([N+](=O)[O-])ccc21 | 100 |
| CN(C)Cc1ccccc1Cn1nc(O)c2cc([N+](=O)[O-])ccc21 | 0 |
| O=[N+]([O-])c1ccc2c(c1)c(OCc1ccccc1)nn2CCOCCN1CCCCC1 | 44 |
| CN(C)c1ccc(C(=C2C=CC(=[N+](C)C)C=C2)c2ccc(N(C)C)cc2)cc1.[Cl-] [GENTIAN VIOLET] | 100 |

Each compound was assayed on Trypanosoma cruzi (assay: Antitrypanosomal activity against Trypanosoma cruzi bloodstream trypomastigote in mouse blood after 24 hrs relative to control). Conditions: not given.
Type: functional, organism-based

| IC50 [µM] | Structure (SMILES) |
| --- | --- |
| 12.5 | CN(C)CCCCCn1nc(OCc2ccccc2)c2cc([N+](=O)[O-])ccc21 |

What follows are compounds tested on Trypanosoma cruzi (assay: Inhibition of respiration in Trypanosoma cruzi Tulahuen 2 assessed as oxygen uptake at 0.622 mM). Conditions: not given.
Type: functional
Design: scale not given: the % may be the effect or the level left

| Structure (SMILES) | Activity [%] |
| --- | --- |
| CN(C)CCCCCn1nc(OCc2ccccc2)c2cc([N+](=O)[O-])ccc21 | 7 |

The compounds below were run on J774 (assay: Cytotoxicity in mouse J774 cells at 100 ug/mL after 48 hrs). Conditions: j774, 48 h.
Type: cell-based

| Structure (SMILES) | Activity |
| --- | --- |
| CN(C)CCOCCn1nc(O)c2cc([N+](=O)[O-])ccc21 | Non-toxic |
| O=[N+]([O-])c1ccc2c(c1)c(O)nn2CCOCCN1CCCCC1 | Non-toxic |
| COc1nn(CCOCCN(C)C)c2ccc([N+](=O)[O-])cc12.Cl | Non-toxic |
| CN(C)CCCCCn1nc(O)c2cc([N+](=O)[O-])ccc21 | Non-toxic |
| CN(C)CCCCCn1nc(OCc2ccccc2)c2cc([N+](=O)[O-])ccc21 | Toxic |
| CN(C)Cc1ccccc1Cn1nc(O)c2cc([N+](=O)[O-])ccc21 | Non-toxic |
| O=[N+]([O-])c1ccc2c(c1)c(OCc1ccccc1)nn2CCOCCN1CCCCC1 | Non-toxic |

Each compound was assayed on J774 (assay: Cytotoxicity in mouse J774 cells at 100 ug/mL after 24 hrs). Conditions: j774, 24 h.
Type: cell-based

| Structure (SMILES) | Activity |
| --- | --- |
| CN(C)CCOCCn1nc(O)c2cc([N+](=O)[O-])ccc21 | Non-toxic |
| O=[N+]([O-])c1ccc2c(c1)c(O)nn2CCOCCN1CCCCC1 | Non-toxic |
| COc1nn(CCOCCN(C)C)c2ccc([N+](=O)[O-])cc12.Cl | Non-toxic |
| CN(C)CCCCCn1nc(O)c2cc([N+](=O)[O-])ccc21 | Non-toxic |
| CN(C)CCCCCn1nc(OCc2ccccc2)c2cc([N+](=O)[O-])ccc21 | Toxic |
| CN(C)Cc1ccccc1Cn1nc(O)c2cc([N+](=O)[O-])ccc21 | Non-toxic |
| O=[N+]([O-])c1ccc2c(c1)c(OCc1ccccc1)nn2CCOCCN1CCCCC1 | Non-toxic |
